{"source": "patent US20240408051A1", "about": "“ADMINISTRATION METHOD OF A CHEMOTHERAPEUTIC AGENT” (priority 2021, published 2024)", "key": {"[1]": {"test_system": "SW 1088 cells, A-172 cells, U-87 MG cells", "assay": "Cell viability using MTT dye", "format": "cell-based", "conditions": "Stiripentol at 250 μ/M; SW 1088, A-172, U-87 MG cells; vs untreated negative control", "experimental": "The present disclosure uses Stiripentol as a chemotherapeutic agent to treat brain tumor. Referring to FIG. 1, the cell viability is determined by using MTT dye (3-(4,5-dimethylthiazol-2-yl)-2,5-diphenyltetrazolium bromide and neutral red dye (3-amino-7-dimethylamino-2-methyl-phenazine hydrochloride). Cancer cells from various cell lines (SW 1088 cells, A-172 cells, U-87 MG cells) are incubated with, Stiripentol in the concentration range of 100-250 μ/M. Simultaneously all the cell lines are incubated with etoposide (positive control) in the concentration of 50 μ/M. The cells lines were thereafter treated with 0.05% (w/v) MTT dye for 4 h at 37° C. and DMSO. The cells lines that received no treatment are used as negative control. […] Cells can be incubated with drugs at indicated concentrations and time points. For the MTT assay, at the end of the drug treatments, cells are treated with 0.05% (w/v) MTT dye for 4 h at 37° C. The formazan crystals are dissolved in DMSO and absorbance was measured at 570 nm using the spectrophotometer. Similarly for neutral red assay, Cells are incubated with drugs at indicated concentrations and time points. Briefly, at the end of the drug treatments, cells are incubated with 40 μg/ml neutral red dye for 4 h at 37° C. […] Absorbance was measured at 540 nm using Tecan spectrophotometer."}, "[2]": {"test_system": "SW 1088 cells, A-172 cells, U-87 MG cells", "assay": "Cell viability using neutral red dye", "format": "cell-based", "conditions": "Stiripentol at 250 μ/M; after 24 hours; SW 1088, A-172, U-87 MG cells; vs untreated negative control", "experimental": "According to an embodiment the Cell viability can be determined using MTT dye (3-(4,5-dimethylthiazol-2-yl)-2,5-diphenyltetrazolium bromide) and neutral red dye (3-amino-7-dimethylamino-2-methyl-phenazine hydrochloride). Cells can be incubated with drugs at indicated concentrations and time points. For the MTT assay, at the end of the drug treatments, cells are treated with 0.05% (w/v) MTT dye for 4 h at 37° C. The formazan crystals are dissolved in DMSO and absorbance was measured at 570 nm using the spectrophotometer. Similarly for neutral red assay, Cells are incubated with drugs at indicated concentrations and time points. Briefly, at the end of the drug treatments, cells are incubated with 40 μg/ml neutral red dye for 4 h at 37° C. Cells were then destained using a solution (50% ethanol, 49% deionized water, and 1% glacial acetic acid). Absorbance was measured at 540 nm using Tecan spectrophotometer. Referring to FIG. 2, cell viability can be determined by utilizing natural red dye (3-amino-7-dimethylamino-2-methyl-phenazine hydrochloride). Cancer cells from various cell lines namely SW 1088 cells, A-172 cells, U-87 MG cells are incubated with Stiripentol and Doxorubicin (used as positive control) in the concentration range of 50-250 μ/M. thereafter the cells are treated with 40 μg/ml neutral red dye for 4 h at 37° C. and destained. […]"}, "[3]": {"test_system": "SW 1088 cells, A-172 cells, U-87 MG cells", "assay": "Cell proliferation activity using BrdU assay", "format": "cell-based", "conditions": "Stiripentol at 250 μ/M; after 72 hours; SW 1088, A-172, U-87 MG cells; vs untreated negative control", "experimental": "Referring to FIG. 3, cell proliferative activity of the cancer cells can be determined using BrdU assay. Cancer cells from cell lines namely SW 1088 cells, A-172 cells, U-87 MG cells are incubated with Stiripentol and Doxorubicin (used as positive control) in the concentration range of 50-250 μ/M. The cell lines are treated with 10 micromolar of BrdU for 2 hours and washed with PBS and Formaldehyde. The treated cell lines are incubated with primary antibody and the secondary antibody. The untreated cells lines are used as negative control here."}, "[4]": {"test_system": "LDH enzyme from U-87 MG", "assay": "LDH inhibitory activity", "format": "biochemical", "conditions": "Stiripentol at 200 μ/M; after 24 hours; 1.7 mM pyruvate, 250 μM β-NADH; homogenized U-87 MG cells", "experimental": "Cancer cells up regulate glycolysis to support rapid growth. LDH is an enzyme part of glycolysis. Referring to FIG. 4 LDH inhibitory activity of Stiripentol can be measured by using LDH enzyme from U-87 MG. The cell culture media is treated with HEPES buffer. Cells are homogenized and treated with the respective drug. Cancer cells thereafter are incubated with Oxamate (used as positive control) at 250 μ/M and Stiripentol at 100 and 200 μ/M respectively. The treated cells are mixed with 1.7 mM of pyruvate and 250 μM of β-NADH."}}}
{"compound": "CC(C)(C)C(O)/C=C/c1ccc2c(c1)OCO2", "note": "(stereo not shown) [Stiripentol, 4,4-dimethyl-1-[3,4-(methylendioxy)-phenyl]-1penten-3-ol]", "values": [{"measurement": "cell viability (MTT dye)", "setting": "[1]", "result": "substantial decrease in the cell viability"}, {"measurement": "viability of the cancer cells (natural red dye)", "setting": "[2]", "result": "substantial reduction in the viability"}, {"measurement": "cell proliferation activity (BrdU)", "setting": "[3]", "result": "substantial reduction in the cell proliferation activity"}, {"measurement": "LDH inhibitory activity (production of LDH enzyme)", "setting": "[4]", "result": "substantial decrease in the production of LDH enzyme"}]}
